Patent US20080279848A1, “Methods of treating lupus using CD4 antibodies” (GENENTECH, INC., priority 2006, published 2008)

What was measured:
[1] = tested on: NZBxW F1 mice (spontaneous lupus-like kidney disease); test: NZBxW F1 preclinical model of SLE, treatment initiated at 9 months of age (severe disease), CD4 antibody and MMF
Procedure: (§1) Proteinuria was measured using a Clinitek® 50 Urine Chemistry Analyzer (Bayer Corporation, Elkhart, Ind., USA). A drop of freshly collected urine was placed on a reagent strip (Multistix® 10 SG, Bayer), and the strip was immediately inserted into the analyzer after removal of excess urine by blotting with a clean gauze sponge.
Numbers of activated CD4+ T cells found in spleen were determined by flow cytometry as follows. Whole spleens were harvested and crushed into single cell suspensions, which were then red blood cell lysed using EL buffer (erythrocyte lysis buffer, from Qiagen, Valencia, Calif., catalog number 79217), passed through a 70 micron cell strainer, and then resuspended for cell counts. A fixed volume of each cell suspension was mixed with a fluorescent bead (Polysciences, Inc., catalog number 18862) solution of known concentration. The mixture was then run on a FACScan™ flow cytometer from BD Biosciences (Franklin Lakes, N.J.). By collecting a fixed number of beads for each mixture, the total number of live cells could be calculated and subsequently used to determine total numbers of cell subpopulations for the spleen of each mouse after further FACS analysis.
Treatment of NZB×NZW mice was initiated at 9 months of age. Mice were screened for proteinuria and randomized into groups based on their proteinuria scores. […] Mice were monitored for changes in proteinuria (urinalysis was performed as described above in Example 1), disease progression, and survival. […] MMF was given IP at either 25 mg/kg daily or 50 mg/kg daily (alone or in combination with the CD4 antibody).
CD4^+ T cell and B2 B cell numbers were determined by flow cytometry basically as described above, using antibodies to identify the various cell populations and then using the percentage of each population represented (of total lymphocytes) multiplied by the total number of lymphocytes to determine the number of each population. B2 cells (the majority of B cells) were identified by positive staining for B220 (CD45) and CD38. Anti-B220/CD45 and anti-CD38 were from BD Pharmingen.
Comparisons were performed using Dunnett's method with the control antibody treated group as the reference control group (designated in bold), and only p values for groups that achieve statistical significance vs. the reference control are designated on the graph.

[2] = tested on: NZBxW F1 mice (spontaneous lupus-like kidney disease); test: NZBxW F1 preclinical model of SLE, treatment initiated at 8 months of age (moderate-severe disease); format: in vivo, mouse; settings: over time after treatment; CTX 50 mg/kg IP every 10 days; FIG. 7A
From the text: The control antibody was an irrelevant mouse IgG1 antibody (a mouse antibody was used for the control since an irrelevant rat antibody would elicit an immune response against itself, influencing the course of disease; the rat anti-CD4 antibody prevents such a response to itself).
At 8 months of age, NZB×NZW mice were screened for proteinuria and randomized into 5 groups based on their proteinuria scores. At this age, disease is considered to be moderate-severe. At the onset of the experiment, each group of 19 mice was composed of the following distribution of protein concentrations in the urine: 32% at >300 mg/dl; 24% at 100-300 mg/dl; and 44% at 30-100 mg/dl. […] Mice were monitored for changes in urine protein concentration (e.g., proteinuria), Blood Urea Nitrogen (BUN), and survival.
as §1
Blood urea nitrogen was measured using a Cobas Integra® 400 chemistry analyzer (Roche Diagnostics, Basel, Switzerland) and urea detection reagent (also supplied by Roche Diagnostics) according to the manufacturer's instructions. […]

[3] = tested on: SJL/J mice with PLP-139-151 peptide induced EAE; test: Relapsing and remitting EAE induced by PLP peptide in SJL/J mice (model of MS); format: in vivo, mouse; settings: treatment initiated at day 14 (peak of disease), CD4 antibody = murinized YTS177; FIG. 12
From the text: Experimental autoimmune encephalomyelitis (EAE) is an inflammatory condition of the central nervous system (CNS) with similarities to MS; in both diseases, demyelination results in impaired nerve conduction and paralysis. Relapsing and remitting EAE induced by injection of proteolipid protein (PLP) peptide in SJL/J mice provides a useful preclinical efficacy model of MS (see, e.g., Miller and Karpus (1996) “Experimental Autoimmune Encephalomyelitis in the Mouse” in Current Protocols in Immunology, Coligan et al. (eds.), John Wiley & Sons, Inc. and Sobel et al. (1990) “Acute experimental allergic encephalomyelitis in SJL/J mice induced by a synthetic peptide of myelin proteolipid protein” J Neuropathol Exp Neurol. 49(5):468-79).
FIG. 10 schematically illustrates progression of the disease over time after injection of the PLP peptide in this model. Injection at day 0 is followed by disease onset (days 0-15), remission (days 15-25), and relapse (day 25-termination of the study at days 60-70). […]
Numbers of effector/memory cells in the blood were determined by flow cytometry as follows. […]
To 1×10^6 cells, a saturating amount of fluorophore-conjugated antibodies were added and incubated on ice for 30 minutes, followed by washing with cold buffer. […] Samples were analyzed by flow cytometry on a FACSCalibur from BD Biosciences. […]

Molecule: COc1c(C)c2c(c(O)c1C/C=C(\C)CCC(=O)OCCN1CCOCC1)C(=O)OC2 [MMF, 2-morpholinoethyl (E)-6-(1,3-dihydro-4-hydroxy-6-methoxy-7-methyl-3-oxo-5-isobenzofuranyl)-4-methyl-4-hexenoate]
- blood B2 B cell numbers ([1]; 25 mg/kg MMF, may not be statistically significant, FIG. 20B): increase
- proteinuria, multiple comparison analysis (Dunnett's method) vs control antibody ([1]; month 2 of treatment, MMF 50 or 25 mg/kg daily, FIG. 19): did not show statistically significant reduction in proteinuria
- capacity to reverse severe proteinuria (mice reversed from 300 mg/dl proteinuria) ([1]; one month of treatment, MMF 25 or 50 mg/kg daily IP, YTS177 5 mg/kg 3x/week, FIG. 17B): not sufficient to reverse severe proteinuria significantly
- mice exhibiting >300 mg/dl proteinuria (reversal of nephritis symptoms in very late stage disease) ([1]; over time after treatment, FIG. 17A): not observed

Molecule: O=P1(N(CCCl)CCCl)NCCCO1 (stereo not drawn) [cyclophosphamide]
- mice exhibiting >300 mg/dl proteinuria (reversal of nephritis symptoms in very late stage disease) [2]: not observed

Molecule: glatiramer acetate
- clinical score [3]: ineffective
